{"source": "patent US5998438A", "about": "“5-cyclo indole compounds” (Allelix Biopharmaceuticals, Inc., priority 1997, dated 1999)", "target": "T1, 5-HT1D-like receptor (Oryctolagus cuniculus, UniProt P49144)", "T1 construct": "Ring segments of the vein (4-5 mm in length) were cut and the endothelium gently removed; from tissue; host or cells: saphenous vein rings (endothelium removed) of male New Zealand White rabbits", "T1 sequence (P49144 whole entry)": "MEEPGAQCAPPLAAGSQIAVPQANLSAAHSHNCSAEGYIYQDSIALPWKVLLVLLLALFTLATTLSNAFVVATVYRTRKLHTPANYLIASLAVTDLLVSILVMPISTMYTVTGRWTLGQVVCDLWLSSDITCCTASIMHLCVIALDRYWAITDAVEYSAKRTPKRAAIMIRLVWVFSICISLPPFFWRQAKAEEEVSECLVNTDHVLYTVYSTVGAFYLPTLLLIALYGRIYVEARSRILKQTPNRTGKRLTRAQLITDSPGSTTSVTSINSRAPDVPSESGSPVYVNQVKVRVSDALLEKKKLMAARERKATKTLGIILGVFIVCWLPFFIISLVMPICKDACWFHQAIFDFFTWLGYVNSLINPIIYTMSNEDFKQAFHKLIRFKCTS", "experiment": "Agonist assay: contraction of rabbit isolated saphenous vein (5-HT1D-like receptor agonist activity)", "parameters": "species or system rabbit (male New Zealand White)", "key": {"[1]": {"settings": "rabbit isolated saphenous vein ring segments, concentration causing 50% of the maximum contraction effected by the compound, with prazosin, idazoxan and indomethacin, 37° C., pH 7.4, read-out: EC50"}}, "note": "Read-outs that look alike come from different tables or passages of the source.", "data": [{"smiles": "CN(C)CCc1c[nH]c2ccc(C3CCCCC3)cc12", "note": "[Example 17a, 5-Cyclohexyl-3-[2-(N,N-dimethylamino)ethyl]-1H-indole]", "values": [{"measurement": "EC50", "value": 250, "unit": "nM"}]}, {"smiles": "C1=C(c2ccc3[nH]cc(CCN4CCCC4)c3c2)CCN(Cc2ccccc2)C1", "note": "[Example 15, 5-(1-Aza-1-benzylcyclohex-3-en-4-yl)-3-(2-pyrrolidinylethyl)-1H-indole]", "values": [{"measurement": "EC50", "setting": "[1]", "value": 220, "unit": "nM"}]}, {"smiles": "CN(C)CCc1c[nH]c2ccc(C3=CCCCC3)cc12", "note": "[Example 9a, 5-(Cyclohex-1-en-1-yl)-3-[2-(N,N-dimethylamino)ethyl]-1H-indole]", "values": [{"measurement": "EC50", "value": 960, "unit": "nM"}]}, {"smiles": "CN(C)CCc1c[nH]c2ccc(C3CCCCO3)cc12", "note": "(centres unmarked) [Example 9b, 3-[2-(N,N-Dimethylamino)ethyl]-5-(tetrahydropyran-2-yl)-1H-indole]", "values": [{"measurement": "EC50", "value": 160, "unit": "nM"}]}, {"smiles": "CN1CCC[C@H]1Cc1c[nH]c2ccc(C3CCN(C(=O)OC(C)(C)C)CC3)cc12", "note": "[Example 17d, (S)-5-(1-Aza-1-tert-butoxycarbonylcyclohex-4-yl)-3-[(N-methylpyrrolidin-2-yl)methyl]-1H-indole]", "values": [{"measurement": "EC50", "setting": "[1]", "value": 750, "unit": "nM"}]}]}
